Test results as given in patent US7658937B2, “Anthraquinones and process for the preparation and method of use thereof” (Board of Trustees of Michigan State University, priority 2004, dated 2010).

What was measured:
[1] = system: female B. malayi adult worms; experiment: Antifilarial activity against female adult worms at 5 ppm (Example 3); type: cell-based, Brugia malayi; conditions: monitored for 20 days
Experimental: (§1) Live adult male and female B. malayi were obtained from John McCall, University of Georgia, Athens, Ga. (NIH Subcontract). Adult worms were transferred to 6 well plates (3 worms, male or female per well) containing fresh RPMI 1640 culture medium supplemented with L-glutamine and penicillin/streptomycin. Anthraquinones were dissolved separately in 100% DMSO (4mg/ml) and diluted with RPMI media to obtain a final concentration of 5 ppm. Duplicate control groups received 2.5% DMSO or no DMSO. Every 48 h, the medium from each well was removed and replaced with fresh RPMI with or without drug in DMSO. The movement and mortality of the filarial were monitored every 24 h for 20 days. All B. malayi worms in control wells were fully motile throughout the study and the worms treated with anthraquinones were dead.

[2] = system: adult female filarial (Brugia malayi) worms; experiment: Mortality and inhibition of motility of adult female filarial worms at 5 ppm (Example 2); type: cell-based; conditions: for time to 100% mortality: adult female worms
Source text: (§2) A collection of 100 adult female Brugia malayi were obtained through an NIH subcontract from Dr. John McCall, University of Georgia in order to test the efficacy of anthraquinones as antifilarial agents. Three worms per well were transferred to 6 well plates containing fresh RPMI 1640 culture medium supplemented with L-glutamine and penicillin/streptomycin. […] Duplicate control groups received 2% DMSO or no DMSO. The medium was removed and replaced with fresh RPMI with or without drug in DMSO every 48 h. The movement and viability of the adult worms were monitored every 24 h till 10 days. The B. malayi worms in control wells were fully motile till the end of 10th day and the worms treated with anthraquinones were dead.
The anthraquinones A, B, D, E, F, J, Q and R, selected randomly, were assayed against adult female filarial (Brugia malayi) worms for mortality and inhibition of motility. […] Other anthraquinones tested gave 100% mortality between 3-10 days (Table 3)

B. malayi Microfilaria = experiment: Antifilarial activity against microfilaria at 5 ppm (Example 3); type: cell-based, Brugia malayi
B. Malayi adult worms = experiment: Dose response of active anthraquinones against adult worms (50 to 3.12 ppm); type: cell-based, Brugia malayi
Source text: as §2
Te assay was repeated with anthraquinones B, F, J and R since they killed the worms quickly compared to the other anthraquinones tested.

[3] = system: male B. malayi adult worms; experiment: Antifilarial activity against male adult worms at 5 ppm (Example 3); type: cell-based, Brugia malayi; conditions: monitored for 20 days
Experimental: as §1

[4] = system: adult female and male B. malayi; experiment: Morphology of H & E stained sections of killed adult worms (FIGS. 6-9); type: cell-based, Brugia malayi; conditions: killed by 5 ppm, H & E stain
Source text: FIG. 6 is a cross-sectional view of H & E stained normal control adult female Brugia malayi. Normal duplicate intrauterine structures contains many well-formed microfilaria larvae that have not yet been released from the uterus. Magnification×400. Calibration mark indicates 100 microns in FIGS. 6-9).
FIG. 7 is a longitudinal sectional view of normal adult male B. malayi. […] Magnification×40.

Schistosoma mansoni = conditions: naturally occurring anthraquinone from daylily roots; Cichewicz et al. 2002; cited from earlier work
[5] = system: human filarial parasite, B.malayi; experiment: Activity of daylily anthraquinone against human filarial parasite; set-up: species or system Brugia malayi

Compound | 100% Mortality of female B. malayi [1] [days] | 100% Mortality of B. Malayi ([2]; adult worms) [days] | 100% Mortality of Microfilaria (Days)* (B. malayi Microfilaria) | further results
O=C1c2ccccc2C(=O)c2c(O)ccc(O)c21 [Anthraquinone E, 1,4-Dihydroxy anthraquinone] | 10 | 10 | No Mortality | –
O=C1c2ccccc2C(=O)c2c1cc(O)c(O)c2O [Anthraquinone F, 1,2,3-Trihydroxy anthraquinone] | 5 | 5 | 3 days | 100% Mortality of B. Malayi (B. Malayi adult worms; 3.125 ppm): 5 days; 100% Mortality of B. Malayi (B. Malayi adult worms; 6.25 ppm): 5 days; 100% Mortality of B. Malayi (B. Malayi adult worms; 12.5 ppm): 4 days; 100% Mortality of B. Malayi (B. Malayi adult worms; 25 ppm): 4 days; 100% Mortality of B. Malayi (B. Malayi adult worms; 50 ppm): 2 days
O=C1c2cc(O)c(O)cc2C(=O)c2c(O)cccc21 [Anthraquinone G, 2,3,5-Trihydroxy anthraquinone] | 5 | 5 | 3 days | –
O=C1c2ccccc2C(=O)c2c(O)cc(O)cc21 [Anthraquinone D, 1,3-Dihydroxy anthraquinone] | – | – | No Mortality | 100% Mortality of female B. malayi (Days) [1]: No Mortality; 100% Mortality of B. malayi (Days) ([2]; adult worms): No activity
COc1c(C)cc2c(c1O)C(=O)c1c(O)cccc1C2=O [Anthraquinone Q, 1,8-Dihydroxy-2-methoxy-3-methyl anthraquinone] | – | – | No Mortality | 100% Mortality of female B. malayi (Days) [1]: No Mortality; 100% Mortality of B. malayi (Days) ([2]; adult worms): No activity
COc1c(C)cc2c(c1O)C(=O)c1ccccc1C2=O [Anthraquinone O, 1-Hydroxy-2-methoxy-3-methyl anthraquinone] | – | – | No Mortality | 100% Mortality of female B. malayi (Days) [1]: No Mortality; 100% Mortality of B. malayi (Days) ([2]; adult worms): No activity
O=C1c2ccc(O)c(O)c2C(=O)c2cccc(O)c21 [Anthraquinone H, 1,2,5-Trihydroxy anthraquinone] | 9 | 9 | 3 days | –
O=C1c2ccccc2C(=O)c2c1ccc(O)c2O [Anthraquinone A, 1,2-Dihydroxy anthraquinone] | 5 | 11 | 3 days | –
O=C1c2cc(O)cc(O)c2C(=O)c2cccc(O)c21 [Anthraquinone L, 1,3,5-Trihydroxy anthraquinone] | 7 | 7 | 3 days | –
COc1cccc2c1C(=O)c1c(cc(C)c(OC)c1O)C2=O [Anthraquinone R, 1-Hydroxy-2,8-dimethoxy-3-methyl anthraquinone] | 7 | 7 | No Mortality | time to 100% mortality [2]: 24 h; 100% Mortality of B. malayi (Days) (B. Malayi adult worms; 3.125 ppm): No Mortality; 100% Mortality of B. Malayi (B. Malayi adult worms; 6.25 ppm): 8 days; 100% Mortality of B. Malayi (B. Malayi adult worms; 12.5 ppm): 4 days; 100% Mortality of B. Malayi (B. Malayi adult worms; 25 ppm): 2 days; 100% Mortality of B. Malayi (B. Malayi adult worms; 50 ppm): 1 days
O=C1c2cccc(O)c2C(=O)c2c(O)ccc(O)c21 [Anthraquinone M, 1,4,8-Trihydroxy anthraquinone] | 9 | 9 | 5 days | –
O=C1c2cccc(O)c2C(=O)c2c1ccc(O)c2O [Anthraquinone I, 1,2,8-Trihydroxy anthraquinone] | 14 | 14 | 3 days | –
Cc1cc2c(c(O)c1O)C(=O)c1ccccc1C2=O [Anthraquinone B, 1,2-Dihydroxy-3-methyl anthraquinone] | 5 | 5 | 3 days | time to 100% mortality [2]: 24 h; 100% Mortality of male B. malayi [3]: 6 days; morphology of adult female B. malayi, cross-section [4]: disruption of the stable cuticle and hypodermal regions, along with disorganization of the intrauterine microfilariae; morphology of adult male B. malayi, longitudinal section [4]: marked loss of cellularity in hypodermal and deeper structures; 100% Mortality of B. Malayi (B. Malayi adult worms; 3.125 ppm): 6 days; 100% Mortality of B. Malayi (B. Malayi adult worms; 6.25 ppm): 5 days; 100% Mortality of B. Malayi (B. Malayi adult worms; 12.5 ppm): 4 days; 100% Mortality of B. Malayi (B. Malayi adult worms; 25 ppm): 3 days; 100% Mortality of B. Malayi (B. Malayi adult worms; 50 ppm): 1 days
O=C1c2cc(O)c(O)c(O)c2C(=O)c2cccc(O)c21 [Anthraquinone N, 1,2,3,-5-Tetrahydroxy anthraquinone] | 5 | 5 | 3 days | 100% Mortality of male B. malayi [3]: 6 days
COc1c(C)cc2c(c1OC)C(=O)c1ccccc1C2=O [Anthraquinone P, 1,2-Dimethoxy-3-methyl anthraquinone] | 11 | 11 | No Morality | –
Cc1cc2c(c(O)c1O)C(=O)c1c(O)cccc1C2=O [Anthraquinone J, 1,2,8-Trihydroxy-3-methyl anthraquinone] | 5 | 5 | 3 days | time to 100% mortality [2]: 48 h; 100% Mortality of male B. malayi [3]: 5 days; 100% Mortality of B. malayi (Days) (B. Malayi adult worms; 3.125 ppm): No Mortality; 100% Mortality of B. Malayi (B. Malayi adult worms; 6.25 ppm): 5 days; 100% Mortality of B. Malayi (B. Malayi adult worms; 12.5 ppm): 4 days; 100% Mortality of B. Malayi (B. Malayi adult worms; 25 ppm): 3 days; 100% Mortality of B. Malayi (B. Malayi adult worms; 50 ppm): 2 days; activity against Schistosoma mansoni (Schistosoma mansoni): significant activity; activity against human filarial parasite B.malayi [5]: active
Cc1c(O)c(O)cc2c1C(=O)c1c(O)cccc1C2=O [Anthraquinone K, 1-Methyl-2,3,8-trihydroxy anthraquinone] | 3 | 3 | 1 days | 100% Mortality of male B. malayi [3]: 5 days
Cc1c(O)c(O)cc2c1C(=O)c1ccccc1C2=O [Anthraquinone C, 1-Methyl-2,3-dihydroxy anthraquinone] | 7 | 7 | 3 days | –
CCCSc1ccc2nc(NC(=O)OC)[nH]c2c1 [Albendazole, reference compound] | 16 | 16 | No Mortality | 100% Mortality of male B. malayi [3]: 9 days
COc1cc2c(c(C)c1OC)C(=O)c1c(O)cccc1C2=O [Anthraquinone S, 1-Methyl-2,3-dimethoxy-8-hydroxy anthraquinone] | 9 | 9 | No Mortality | activity ([2]; adult worms, at 9 days): 50%
